The values that follow come from patent publication US11447511B2, “Dioxolane analogues of uridine for the treatment of cancer” (MEDIVIR AB, priority 2014, dated 2022).

One data set concerns Huh7. Put plainly: Cell cytotoxicity assay, HUH7. The format is cell-based. To be noted: Huh7 cells, 5 days at 37° C., XTT dye. As to the method:
(§1) Cells were seeded 24 hours prior to compound addition. Each test compound (serially diluted from 100 μM) was added to Huh7 (1.5×10^4 cells/well) or HepG2 (1.5×10^4 cells/well), and allowed to incubate for 5 days at 37° C. A medium only control was used to determine the minimum absorbance value and an untreated cell value. At the end of the growth period, XTT dye from Polysciences Europe GmbH was added to each well. The absorbance at 450 nm with a reference wavelength of 600 nm was read with a Sunrise (Tecan) using the medium only control wells as blanks. The 50% inhibition value (CC50) was determined by comparing the degree of inhibition (compared to cell control) plotted against compound concentration. Results from the dilution series were fitted to a sigmoidal dose-response curve.
(§2) Compounds of the invention were evaluated in these assays to assess the stability in human intestinal S9 fraction (HIS9) and human liver S9 fraction (HLS9), and for Cell Cytotoxicity in HUH7, HEP3B and HEPG2 cells.

Another data set has as its system HEP3B. In words: Cell cytotoxicity assay, HEP3B. The format is cell-based. To be noted: HEP3B cells. How it is done: as §1, §2
A further data set concerns HepG2. In words: Cell cytotoxicity assay, HEPG2. The format is cell-based. Particulars: HepG2 cells, 5 days at 37° C., XTT dye. As to the method:
as §1, §2

Data set [1] in a line: Stability in human intestinal S9 fraction (HIS9). Particulars: human intestinal S9 0.4 mg protein/mL, 5 μM test compound, 37° C. The format is in vitro ADME. How it is done:
(§3) Stability in Human Intestinal S9 Fraction (HIS9) and in Human Liver S9 Fraction (HLS9),
(§4) Stock solutions of each test compound (10 mM) were prepared in DMSO and stored at −20° C. Prior to the start of the experiment, the test compounds were diluted to 500 μM in 50% acetonitrile in water. The reaction mixture was prepared in a total volume of 250 μL containing 5 mM MgC2, 1 mM NADPH and 5 μM test compound in 50 mM potassium phosphate buffer (pH 7.4). The reaction was initiated by addition of human liver or intestinal S9 fraction with a final concentration of 0.4 mg protein/mL (Xeno Tech). The reaction mixture was incubated on an orbital shaker at 37° C. At the desired time points (0, 10, 30 and 60 minutes) aliquots of 50 μL were taken and the reaction was stopped by mixing with 150 μL acetonitrile containing internal standard. Standard solutions of each test compound were prepared from the 500 μM solution by diluting the solution to a final concentration of 5 μM in boiled human S9 (0.4 mg protein/mL), 5 mM MgCl2 and 50 mM potassium phosphate buffer (pH 7.4). The standards and samples were kept on ice for 30 min then centrifuged at 3 000 g for 20 minutes at 10° C., there after 10 μL of supernatant was mixed with 200 μL 50% acetonitrile in water. 0.5 μM of each test compound in 50% acetonitrile in water was injected into the LC/MS-MS to determine the daughter ion, declustring potential (DP), collision energy (CE) and collision cell exit potential (CXP) in order to develop a LC/MS-MS method. The compounds were separated using a C18 column with a QTRAP5500 system. The mobile phase consisted of solvent A (98% water, 2% acetonitrile, 0.1% acetic acid or 10 mM ammonium acetate) and solvent B (80% acetonitrile, 20% water, 0.1% acetic acid or 10 mM ammonium acetate). Elution of the compounds was performed by using a gradient of solvent B from 0% to 100%. 5 μL of standard points and samples were injected for analysis with QTRAP5500.
(§5) The amount of parent compound was determined on the basis of the peak area for each time point compared to standard which was set to 5 μM. Intrinsic clearance (CLint) and half-life (t1/2) were determined from the disappearance curves of the test compound using Excel software.

Data set [2] can be described thus: Stability in human liver S9 fraction (HLS9). In kind it is in vitro ADME. Particulars: human liver S9 0.4 mg protein/mL, 5 μM test compound, 37° C. How it is done: as §3, §4, §5

Turning to `COC(=O)[C@H](C)NP(=O)(OC[C@H]1OC[C@@H](n2ccc(N)nc2=O)O1)Oc1ccccc1` (single isomer, unassigned; dia-2) [26 dia-2], the CC50 was found to be 4730 nM with Huh7, 4020 nM with HEP3B and 1060 nM with HepG2. In data set [1], the “CLint Intestinal S9” value stood at 6 µL/min/mg. In data set [2], the “CLint Liver S9” value is 10 µL/min/mg.
Take `COC(=O)[C@H](C)NP(=O)(OC[C@H]1OC[C@@H](n2ccc(N)nc2=O)O1)Oc1ccccc1` (single isomer, unassigned; dia-1) [26 dia-1]: the CC50 in the data set with HEP3B stood at 4340 nM; in the data set on HepG2, 1210 nM. Further, in data set [1], the “CLint Intestinal S9” value was determined as 6 µL/min/mg. The “CLint Liver S9” value in data set [2] is 7 µL/min/mg.
Consider `CCCC(CCC)COC(=O)[C@H](C)NP(=O)(OC[C@H]1OC[C@@H](n2ccc(N)nc2=O)O1)Oc1ccc(Br)cc1` (single isomer, unassigned; dia-1) [23 dia-1], for which the CC50 was found to be 10 nM with HEP3B and 8.6 nM with HepG2. Further, the “CLint Intestinal S9” value in data set [1] amounted to 32 µL/min/mg. Also, the “CLint Liver S9” value in data set [2] came out at 186 µL/min/mg.
Consider `CC[C@@H](C)OC(=O)[C@H](C)NP(=O)(OC[C@H]1OC[C@@H](n2ccc(N)nc2=O)O1)Oc1ccccc1` (single isomer, unassigned; dia-2) [18 dia-2], for which the CC50 in the data set on Huh7 was 76 nM; in the data set on HEP3B it was 113 nM; in the data set on HepG2, 65 nM. Further, in data set [1], the “CLint Intestinal S9” value stood at 7 µL/min/mg. In data set [2], the “CLint Liver S9” value was determined as 30 µL/min/mg.
As to `CC[C@@H](C)OC(=O)[C@H](C)NP(=O)(OC[C@H]1OC[C@@H](n2ccc(N)nc2=O)O1)Oc1ccccc1` (single isomer, unassigned; dia-1) [18 dia-1], the results for the CC50 with Huh7, in the data set on HEP3B and with HepG2 were 461 nM, 228 nM and 248 nM, respectively. Further, the “CLint Intestinal S9” value in data set [1] came to 6 µL/min/mg. Further, in data set [2], the “CLint Liver S9” value was 21 µL/min/mg.
With `CCCC(CCC)COC(=O)[C@H](C)NP(=O)(OC[C@H]1OC[C@@H](n2ccc(N)nc2=O)O1)Oc1ccccc1` (single isomer, unassigned; dia-2) [8 dia-2], the figures for the CC50 in the data set on Huh7, in the data set with HEP3B and in the data set on HepG2 were 74 nM, 35 nM and 17 nM, respectively.
Regarding `COC(=O)[C@H](C)NP(=O)(OC[C@H]1OC[C@@H](n2ccc(N)nc2=O)O1)Oc1ccc(Br)cc1` (single isomer, unassigned; dia-1) [27 dia-1], the CC50 with Huh7 amounted to 1440 nM; with HepG2 it was 151 nM. Moreover, in data set [1], the “CLint Intestinal S9” value is 11 µL/min/mg. The “CLint Liver S9” value in data set [2] is 38 µL/min/mg.
As to `CC[C@@H](C)OC(=O)[C@H](C)NP(=O)(OC[C@H]1OC[C@@H](n2ccc(N)nc2=O)O1)Oc1ccc([Si](C)(C)C)cc1` (single isomer, unassigned; dia-1) [11 dia-1], the figures for the CC50 with Huh7, in the data set with HEP3B and in the data set with HepG2 were 26 nM, 18 nM and 54 nM, respectively. Also, the “CLint Intestinal S9” value in data set [1] worked out at 6 µL/min/mg. In addition, the “CLint Liver S9” value in data set [2] stood at 51 µL/min/mg.
As to `Nc1ccn([C@@H]2CO[C@H](COP(=O)(N[C@@H](Cc3ccccc3)C(=O)OC3CCCCC3)Oc3ccc(Br)cc3)O2)c(=O)n1` (single isomer, unassigned; dia-1) [7 dia-1], the CC50 in the data set with Huh7 turned out to be 1020 nM; in the data set on HepG2, 240 nM. The “CLint Intestinal S9” value in data set [1] was found to be 147 µL/min/mg. In data set [2], the “CLint Liver S9” value is 148 µL/min/mg.
Consider `C[C@H](NP(=O)(OC[C@H]1OC[C@@H](n2ccc(N)nc2=O)O1)Oc1cccc2ccccc12)C(=O)OC1CCCC1` (single isomer, unassigned; dia-2) [22 dia-2], for which the CC50 came out at 40 nM with Huh7 and 11 nM in the data set on HepG2. Moreover, the “CLint Intestinal S9” value in data set [1] came to 34 µL/min/mg. The “CLint Liver S9” value in data set [2] came out at 43 µL/min/mg.
The corresponding values for `Nc1ccn([C@@H]2CO[C@H](COP(=O)(N[C@@H](Cc3ccccc3)C(=O)OC3CCCCC3)Oc3ccc(Br)cc3)O2)c(=O)n1` (single isomer, unassigned; dia-2) [7 dia-2] are 134 nM, 58 nM, 27 µL/min/mg and 60 µL/min/mg.
As to `CC[C@@H](C)OC(=O)[C@H](C)NP(=O)(OC[C@H]1OC[C@@H](n2ccc(N)nc2=O)O1)Oc1ccc([Si](C)(C)C)cc1` (single isomer, unassigned; dia-2) [11 dia-2], the CC50 in the data set on HEP3B worked out at 31 nM; in the data set with HepG2 it was 54 nM. Also, in data set [1], the “CLint Intestinal S9” value was determined as 28 µL/min/mg. The “CLint Liver S9” value in data set [2] came out at 81 µL/min/mg.
`CCC[C@H](C)OC(=O)[C@H](C)NP(=O)(OC[C@H]1OC[C@@H](n2ccc(N)nc2=O)O1)Oc1ccccc1` (single isomer, unassigned; dia-2) [20 dia-2]: the CC50 in the data set with Huh7 turned out to be 73 nM; with HEP3B, 78 nM; in the data set with HepG2, 60 nM. Also, in data set [1], the “CLint Intestinal S9” value was 6 µL/min/mg. Further, in data set [2], the “CLint Liver S9” value was found to be 25 µL/min/mg.
The corresponding values for `CCC[C@H](C)OC(=O)[C@H](C)NP(=O)(OC[C@H]1OC[C@@H](n2ccc(N)nc2=O)O1)Oc1ccc(C2CC2)cc1` (single isomer, unassigned; dia-1) [16 dia-1] are 1200 nM, 106 nM, 151 nM, 8 µL/min/mg and 50 µL/min/mg.
For the compound `CCC(CC)OC(=O)[C@H](C)NP(=O)(OC[C@H]1OC[C@@H](n2ccc(N)nc2=O)O1)Oc1ccccc1` (single isomer, unassigned; dia-1) [21 dia-1], the CC50 with Huh7 is 574 nM; in the data set with HepG2, 163 nM. Moreover, the “CLint Intestinal S9” value in data set [1] worked out at 29 µL/min/mg. In data set [2], the “CLint Liver S9” value was 61 µL/min/mg.
For `C[C@H](NP(=O)(OC[C@H]1OC[C@@H](n2ccc(N)nc2=O)O1)Oc1cccc2ccccc12)C(=O)OC1CCCCC1` (single isomer, unassigned; dia-1) [6 dia-1], the CC50 worked out at 258 nM in the data set with Huh7 and 92 nM in the data set on HepG2. The “CLint Intestinal S9” value in data set [1] stood at 36 µL/min/mg. Also, the “CLint Liver S9” value in data set [2] is 91 µL/min/mg.
On to `CCC(CC)COC(=O)[C@H](C)NP(=O)(OC[C@H]1OC[C@@H](n2ccc(N)nc2=O)O1)Oc1ccccc1` (single isomer, unassigned; dia-1) [15 dia-1], for which the CC50 turned out to be 25 nM with Huh7 and 37 nM in the data set with HepG2. The “CLint Intestinal S9” value in data set [1] turned out to be 87 µL/min/mg. The “CLint Liver S9” value in data set [2] amounted to 167 µL/min/mg.
With `CCC[C@H](C)OC(=O)[C@H](C)NP(=O)(OC[C@H]1OC[C@@H](n2ccc(N)nc2=O)O1)Oc1ccccc1` (single isomer, unassigned; dia-1) [20 dia-1], the figures for the CC50 in the data set with Huh7 and with HepG2 were 216 nM and 74 nM, respectively. Also, the “CLint Intestinal S9” value in data set [1] stood at 21 µL/min/mg. Moreover, the “CLint Liver S9” value in data set [2] stood at 45 µL/min/mg.
For `CC(C)OC(=O)[C@H](C)NP(=O)(OC[C@H]1OC[C@@H](n2ccc(N)nc2=O)O1)Oc1cccc2ccccc12` (single isomer, unassigned; dia-2) [5 dia-2], the CC50 in the data set on Huh7 turned out to be 602 nM; in the data set on HepG2, 114 nM. Besides, in data set [1], the “CLint Intestinal S9” value was 13 µL/min/mg. Moreover, the “CLint Liver S9” value in data set [2] was 31 µL/min/mg.
The corresponding values for `CCCCCCCCCCCCCCCC(=O)Nc1ccn([C@@H]2CO[C@H](COP(=O)(N[C@@H](C)C(=O)OC(C)C)Oc3ccccc3)O2)c(=O)n1` (single isomer, unassigned; dia-2) [35 dia-2] are 11 nM, 7 nM, 51 µL/min/mg and 34 µL/min/mg.
